Assay results as given in PMC6941124 (International Journal of Molecular Sciences, 2019).
Positions count from the first letter of the chain named. Values joined by “and” are separate entries in the source; they are usually repeats but may differ in a detail not shown here. Equal values may be shown once.

Key:
[1] = biological target: CK1δ wild type (GST-CK1δ) (Homo sapiens, UniProt P48730); assay: in vitro kinase assay, GST-CK1δ wild type; assay type: biochemical; conditions: for Kinase activity of CK1δ in presence of inhibitor: 10 µM inhibitor, initial screening; for IC50: dilution series 0.005−10 µM, mean ± standard error, triplicate
Method: (§1) Overexpression and purification of GST-CK1δ fusion proteins, either wild type or mutant, were performed as described previously.
(§2) Each kinase assay reaction was performed in kinase buffer (25 mM Tris-HCl (pH 7.5), 10 μM ATP, 10 mM MgCl2, 100 μM EDTA) in presence of purified GST-CK1δ kinase as source of enzyme (either wild type or mutant), an assay-specific substrate (α-casein, GST-p53^1−64, or GST-β-catenin^1−181), and radiolabeled ATP (2 μCi [γ-^32P]-ATP). For performing Michaelis–Menten analysis increasing substrate concentrations were used (α-casein: 0.39−25 μM; GST-p53^1−64: 0.09−1.87 μM; GST-β-catenin^1−181: 0.07−1.32 μM). For biological evaluation of small molecule inhibitors (SMIs), each inhibitor compound was either tested at 10 μM concentration for initial screening or by using a dilution series (0.005−10 µM) for determination of IC50 values. DMSO was used as control. Reactions were incubated for 30 min at 30 °C and reactions were stopped using 5x SDS-loading buffer (250 mM Tris-HCl [pH 6.8], 25% (v/v) β-mercaptoethanol (MSH), 50% (v/v) glycerol, 10% (w/v) SDS, 0.5% (w/v) bromphenol blue). Subsequently, samples were separated by SDS-PAGE using 12.5% acrylamide gels, stained with Coomassie, and phosphorylated substrates were visualized on X-ray film. Incorporation of radiolabeled phosphate was quantified by scintillation counting of Coomassie-stained substrate bands. Defined dilutions of the reaction master mix were counted as well in order to convert results obtained as counts per minute (CPM) to units of transferred phosphate in pmol/min. Michaelis–Menten analysis was performed using GraphPad Prism 6 (GraphPad Software, San Diego, CA, USA).

CK1δ R168H = biological target: T1, CK1δ R168H (Homo sapiens, UniProt P48730, R168H); assay: in vitro kinase assay, CK1δ mutant R168H; assay type: biochemical; conditions: 10 µM inhibitor, among 16-19, Figure 5c
T1 sequence (P48730 1-415 R168H): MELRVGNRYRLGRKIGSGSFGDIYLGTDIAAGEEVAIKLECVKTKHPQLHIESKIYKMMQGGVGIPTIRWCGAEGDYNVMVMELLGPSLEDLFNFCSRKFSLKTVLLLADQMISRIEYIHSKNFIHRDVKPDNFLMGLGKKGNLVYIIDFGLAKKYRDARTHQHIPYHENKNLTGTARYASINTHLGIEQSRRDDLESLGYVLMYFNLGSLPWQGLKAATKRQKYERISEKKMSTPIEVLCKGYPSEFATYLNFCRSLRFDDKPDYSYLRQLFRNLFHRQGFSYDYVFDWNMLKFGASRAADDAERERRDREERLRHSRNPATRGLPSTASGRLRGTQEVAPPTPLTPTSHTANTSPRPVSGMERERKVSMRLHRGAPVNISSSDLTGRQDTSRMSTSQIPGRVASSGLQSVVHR
Method: as §1, §2

CK1δ T67S = biological target: T2, CK1δ T67S (Homo sapiens, UniProt P48730, T67S); assay: in vitro kinase assay, CK1δ mutant T67S; assay type: biochemical; conditions: 10 µM inhibitor, Figure 5a
T2 sequence (P48730 1-415 T67S): T1 sequence (P48730 1-415 R168H) with T67S, H168R
Method: as §1, §2

CK1α = CK1α (Homo sapiens, UniProt P48729); assay: in vitro kinase assay, CK1α; assay type: biochemical; conditions: 10 µM inhibitor, initial screening
CK1γ = assay: in vitro kinase assay, CK1γ; assay type: biochemical; conditions: 10 µM inhibitor, initial screening
CK1ε = CK1ε (Homo sapiens, UniProt P49674); assay: in vitro kinase assay, CK1ε; assay type: biochemical; conditions: 10 µM inhibitor, initial screening
HeLa CK1δ−/− cells = assay: MTT viability assay, HeLa CK1δ−/− cells; assay type: cell-based; conditions: 48 h
Method: (§3) Parental HeLa cells, as well as HeLa CSNK1D knock-out cells (CK1δ^−/−) (generated by CRISP/Cas9 technology and provided by EDIGENE, Beijing, China), were cultured in Dulbecco’s Modified Eagle medium (DMEM). HCT-116 and HT-29 colon cancer cells were cultured in McCoy’s 5A medium whereas SW480 and SW620 colon cancer cells were cultured in Leibovitz’s L-15 medium. All media were supplemented with 10% (v/v) fetal bovine serum (FBS), 100 units/mL penicillin, and 100 µg/mL streptomycin. DMEM-based medium for the culture of HeLa CSNK1D knock-out cells was additionally supplemented with 1 μg/mL puromycin. Cell cultures were maintained at 37 °C in a humidified atmosphere containing 5% CO2. Cells were transfected using Effectene transfection reagent (Qiagen, Hilden, Germany) according to the manufacturer’s instructions. For selection of stably transfected clones, transfected cells were grown in selective medium, containing 0.6 mg/mL of G-418 (Calbiochem-Merck Millipore, Darmstadt, Germany).
(§4) For performing MTT viability assays, cells were seeded in a 96-well plate (5 × 10^4 cells/well for HeLa cells (parental, CK1δ^−/−, or CK1δ^−/− cells stably transfected with wild type or mutant CK1δ), HCT-116, and HT-29 cells or 7.5 × 10^4 cell/well for SW480 and SW620 cells). After 24 h, old medium was replaced with fresh medium containing either the small molecule of interest or DMSO as control. After 48 h of treatment, 10 μL MTT (5 mg/mL) was added and incubated at 37 °C for 4 h. The medium was then gently removed and 100 μL of acidic isopropanol was added (90% (v/v) isopropanol, 10% (v/v) 1 N HCl). Cell culture plates were then shaken for 30 min at room temperature. Absorbance was measured at 570 nm with TriStar^2 LB942 Microplate Reader (Berthold Technologies, Bad Wildbad, Germany) and data analysis was performed using GraphPad Prism 6 (GraphPad Software, San Diego, CA, USA).

[2] = test system: HeLa CK1δ+/+ cells (HeLa CK1δ−/− stably transfected with CK1δ); assay: MTT viability assay, HeLa CK1δ+/+ cells; assay type: cell-based; conditions: 48 h
Method: as §3, §4

[3] = test system: HeLa CK1δ−/− cells expressing CK1δ T67S; assay: MTT viability assay, HeLa CK1δ−/− cells expressing CK1δ T67S; assay type: cell-based; conditions: 48 h
Method: as §3, with “For selection of stably transfected clones, transfected cells were grown in selective medium, containing 0.6 mg/mL of G-418 (Calbiochem-Merck Millipore, Darmstadt, Germany).” left out
(§5) For performing MTT viability assays, cells were seeded in a 96-well plate (5 × 10^4 cells/well for HeLa cells (parental, CK1δ^−/−, or CK1δ^−/− cells stably transfected with wild type or mutant CK1δ), HCT-116, and HT-29 cells or 7.5 × 10^4 cell/well for SW480 and SW620 cells). […] Absorbance was measured at 570 nm with TriStar^2 LB942 Microplate Reader (Berthold Technologies, Bad Wildbad, Germany) and data analysis was performed using GraphPad Prism 6 (GraphPad Software, San Diego, CA, USA).

[4] = test system: HeLa CK1δ−/− cells expressing CK1δ R127Q; assay: MTT viability assay, HeLa CK1δ−/− cells expressing CK1δ R127Q; assay type: cell-based; conditions: 48 h
Method: as §3, with “For selection of stably transfected clones, transfected cells were grown in selective medium, containing 0.6 mg/mL of G-418 (Calbiochem-Merck Millipore, Darmstadt, Germany).” left out
as §5

[5] = test system: HeLa CK1δ−/− cells expressing CK1δ R168H; assay: MTT viability assay, HeLa CK1δ−/− cells expressing CK1δ R168H; assay type: cell-based; conditions: 48 h
Method: as §3, with “For selection of stably transfected clones, transfected cells were grown in selective medium, containing 0.6 mg/mL of G-418 (Calbiochem-Merck Millipore, Darmstadt, Germany).” left out
as §5

[6] = test system: HCT-116 colon cancer cells; assay: MTT viability assay, HCT-116; assay type: cell-based; conditions: 48 h, dose series (Figure S2)
Method: as §3, with “For selection of stably transfected clones, transfected cells were grown in selective medium, containing 0.6 mg/mL of G-418 (Calbiochem-Merck Millipore, Darmstadt, Germany).” left out
as §5

HT-29 colon cancer cells = assay: MTT viability assay, HT-29; assay type: cell-based; conditions: 10 µM, 48 h, initial screening (Figure 10a)
Method: as §3, §4

SW480 colon cancer cells = assay: MTT viability assay, SW480; assay type: cell-based, human; conditions: 10 µM, 48 h, initial screening (Figure 10a)
Method: as §3, §4

SW620 colon cancer cells = assay: MTT viability assay, SW620; assay type: cell-based, human; conditions: 48 h; for Reduction of cell viability, SW620: 10 µM, initial screening (Figure 10a)
Method: as §3, §4

Sequence of CK1ε (P49674 whole entry): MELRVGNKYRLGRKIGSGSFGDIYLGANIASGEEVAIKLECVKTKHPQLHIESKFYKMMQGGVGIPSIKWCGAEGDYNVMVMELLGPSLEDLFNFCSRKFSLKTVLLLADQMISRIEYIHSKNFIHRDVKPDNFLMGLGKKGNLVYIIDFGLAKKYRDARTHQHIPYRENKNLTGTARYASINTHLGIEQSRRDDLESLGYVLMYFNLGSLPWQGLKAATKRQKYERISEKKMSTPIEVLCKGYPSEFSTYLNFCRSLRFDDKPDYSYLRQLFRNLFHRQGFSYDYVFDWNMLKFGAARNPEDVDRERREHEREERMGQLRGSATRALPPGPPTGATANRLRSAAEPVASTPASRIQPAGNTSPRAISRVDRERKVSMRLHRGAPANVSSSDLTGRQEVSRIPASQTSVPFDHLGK
Sequence of CK1δ wild type (GST-CK1δ) (P48730 whole entry, the tested form may be a part): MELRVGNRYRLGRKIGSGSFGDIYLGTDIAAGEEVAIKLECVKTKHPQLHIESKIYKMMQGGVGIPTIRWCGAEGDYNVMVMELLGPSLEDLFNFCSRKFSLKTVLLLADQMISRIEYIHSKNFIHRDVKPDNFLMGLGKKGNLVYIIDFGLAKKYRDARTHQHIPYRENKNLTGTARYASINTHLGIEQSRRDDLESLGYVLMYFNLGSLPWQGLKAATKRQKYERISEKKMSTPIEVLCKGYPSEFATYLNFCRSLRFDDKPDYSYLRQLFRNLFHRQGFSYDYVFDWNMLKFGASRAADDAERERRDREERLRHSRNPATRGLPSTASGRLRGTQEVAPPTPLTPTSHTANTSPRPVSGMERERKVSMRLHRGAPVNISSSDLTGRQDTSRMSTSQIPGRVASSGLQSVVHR
Sequence of CK1α (P48729 whole entry): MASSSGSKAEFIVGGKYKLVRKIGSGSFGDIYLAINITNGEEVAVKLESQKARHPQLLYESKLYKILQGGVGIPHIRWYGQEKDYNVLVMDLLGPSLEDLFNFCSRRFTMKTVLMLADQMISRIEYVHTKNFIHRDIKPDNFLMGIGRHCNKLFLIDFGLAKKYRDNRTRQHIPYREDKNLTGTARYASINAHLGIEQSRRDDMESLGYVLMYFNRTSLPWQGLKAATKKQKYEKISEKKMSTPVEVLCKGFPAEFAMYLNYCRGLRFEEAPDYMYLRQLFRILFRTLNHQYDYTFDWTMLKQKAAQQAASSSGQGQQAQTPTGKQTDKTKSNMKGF

Kinase activity of CK1δ in presence of inhibitor [1] | IC50 [1] | Kinase activity of CK1γ in presence of inhibitor (CK1γ) | Kinase activity of CK1ε in presence of inhibitor (CK1ε) | Reduction of CK1α activity (CK1α) | Structure (SMILES) | Reduction of cell viability, HT-29 (HT-29 colon cancer cells) | Reduction of cell viability, SW480 (SW480 colon cancer cells) | Reduction of cell viability, SW620 (SW620 colon cancer cells) | other results
strongly inhibited | 1700 nM | not affected | strongly inhibited |  | COc1ccc(-n2c(SCC(=O)Nc3nc4ccc(C(F)(F)F)cc4s3)nccc2=O)c(OC)c1 [Compound 18, 2-((3-(2,4-Dimethoxyphenyl)-4-oxo-3,4-dihydropyrimidin-2-yl)thio)-N-(6-(trifluoromethyl)benzo[d]thiazol-2-yl)acetamide] |  |  |  | Effects on CK1δ R168H activity (CK1δ R168H): strongest effects; Inhibition of CK1δ T67S compared to wild type CK1δ (CK1δ T67S): slightly stronger; Kinase activity of CK1α in presence of inhibitor (CK1α): not affected; EC50 (HeLa CK1δ−/− cells; CK1, 0.313-70 µM, read-out: EC50 (CK1δ−/−), cell viability): 18500 nM; Cell viability of CK1δ-expressing cells (HeLa parental or CK1δ+/+) compared to CK1δ-deficient cells (HeLa CK1δ−/−) ([2]; 25 μM): more reduced; EC50 ([2]; CK1, 0.313-70 µM, read-out: EC50 (CK1δ+/+), cell viability): 7400 nM; Effects on cell viability of CK1δ T67S-expressing HeLa cells vs CK1δ WT-expressing cells ([3]; 10 μM): stronger effects; Effects on cell viability of CK1δ R127Q-expressing HeLa cells vs CK1δ WT-expressing cells ([4]; 10 μM, difference not statistically significant): stronger effects; Effects on cell viability of CK1δ R168H-expressing HeLa cells vs CK1δ WT-expressing cells ([5]; 10 μM): stronger effects
strongly inhibited | 90 nM and 86 nM | not affected | strongly inhibited | at least 50% | COc1ccc(Cn2c(SCC(=O)Nc3nc4ccc(C(F)(F)F)cc4s3)nccc2=O)cc1 [Compound 20, 2-((3-(4-Methoxybenzyl)-4-oxo-3,4-dihydropyrimidin-2-yl)thio)-N-(6-(trifluoromethyl)benzo[d]thiazol-2-yl)acetamide] | approximately 35% | approximately 35% | about 60% | Cell viability of HeLa CK1δ−/− compared to parental cells or HeLa CK1δ+/+ cells (HeLa CK1δ−/− cells; 5 μM): significantly less affected; Cell viability of HeLa CK1δ−/− cells expressing CK1δ T67S vs CK1δ WT ([3]; 5 μM): no mutant-specific effects; Cell viability of HeLa CK1δ−/− cells expressing CK1δ R127Q vs CK1δ WT ([4]; 5 μM): no mutant-specific effects; Cell viability of HeLa CK1δ−/− cells expressing CK1δ R168H vs CK1δ WT ([5]; 5 μM): no mutant-specific effects; Reduction of cell viability, HCT-116 ([6]; 0.625 µM): approximately 30%; Dose-dependent effects on SW620 cell viability (SW620 colon cancer cells; 0.625 to 20 µM, MTT (Figure S2)): clear dose-dependent effects; EC50 (SW620 colon cancer cells; Homo sapiens, SW-620, 0.625-20 µM, MTT, read-out: EC50 (SW620), cell viability): 3000 nM
strongly inhibited | 240 ± 40 nM | not affected | strongly inhibited | at least 50% | O=C(CSc1nccc(=O)n1Cc1ccccc1F)Nc1nc2ccc(C(F)(F)F)cc2s1 [Compound 22] | approximately 35% | approximately 35% | 25% | Reduction of cell viability, HCT-116 ([6]; 1.25 µM): approximately 30%
